Data from ChEMBL document CHEMBL5356998, “Diaporaustalides A-L, Austalide Meroterpenoids from a Plant Endophytic Diaporthe sp” (J Nat Prod, 2024).

Tests used:
[1] = Cytotoxicity against mouse splenocyte by MTT assay; type: toxicity, cell-based; conditions: mouse splenocytes
Splenocyte [2] = experiment: Immunosuppressive activity in mouse splenocyte assessed as reduction in ConA-induced mouse T-cell proliferation; type: functional, cell-based
Splenocyte [3] = experiment: Immunosuppressive activity in mouse splenocyte assessed as reduction in LPS-induced mouse B-cell proliferation; type: functional, cell-based
[4] = Selectivity index, ratio of CC50 for cytotoxicity against mouse splenocyte to IC50 for immunosuppressive activity in mouse splenocyte assessed as reduction in ConA-induced mouse T-cell proliferation; conditions: mouse splenocytes, read-out: Ratio CC50/IC50
[5] = Selectivity index, ratio of CC50 for cytotoxicity against mouse splenocyte to IC50 for immunosuppressive activity in mouse splenocyte assessed as reduction in LPS-induced mouse B-cell proliferation; conditions: mouse splenocytes, read-out: Ratio CC50/IC50
B-cell = experiment: Downregulation od IL-6 expression in LPS induced B cell (unknown origin) incubated for 48 hrs by ELISA method; type: functional, cell-based; conditions: dose 1-25 µM
Alpha-glucosidase = Alpha-glucosidase (Saccharomyces cerevisiae S288c, UniProt P53341+P38158+P07265); experiment: Inhibition of Saccharomyces cerevisiae alpha glucosidase using p-nitrophenyl glucopyranoside as substrate preincubated for 10 mins followed by substrate addition and measured after 20 mins by microplate reader analysis; type: protein assay
HeLa = experiment: Cytotoxicity against human HeLa cells by MTT assay; type: functional, cell-based

Structure (SMILES)	CC50 [1] [µM]	IC50 (Splenocyte [2]) [µM]	IC50 (Splenocyte [3]) [µM]	selectivity ratio [4]	selectivity ratio [5]	Activity (B-cell)	IC50 (Alpha-glucosidase) [µM]	IC50 (HeLa) [µM]
COc1c2c(c(C=O)c3c1C(=O)OC3)O[C@]1(C)CC[C@@]3(O)C(C)(C)[C@H](O)CC[C@]3(C)[C@H]1C2	> 50	> 50	> 50					
COc1c2c(c(C=O)c3c1C(=O)OC3)O[C@]1(C)CC[C@@]3(O)[C@@](C)(CO)CCC[C@]3(C)[C@H]1C2	> 50	25	> 50	> 2				
COc1c2c(c(C=O)c3c1C(=O)OC3)O[C@]1(C)CC[C@H]3C(C)(C)[C@H](O)CC[C@]3(C)[C@H]1C2	24	11	6.7	2.2	3.6	Dose-Dependent Effect		
COc1c2c(c(C=O)c3c1C(=O)OC3)O[C@]1(C)CC[C@@]3(O)C(C)(C)CCC[C@]3(C)[C@H]1C2	> 50	42	3.8	1.1	> 13	Dose-Dependent Effect	61	
COc1c2c(c(C=O)c3c1C(=O)OC3)O[C@]1(C)CC[C@@]3(O)[C@@](C)(C=O)CCC[C@]3(C)[C@H]1C2	43	37	39	1.2	1.1			
COc1c2c(c(C=O)c3c1C(=O)OC3)O[C@]1(C)[C@H](O)C[C@@]3(O)C(C)(C)CCC[C@]3(C)[C@H]1C2	23	22	8.5	> 1	2.7			
COc1c2c(c(C=O)c3c1C(=O)OC3)O[C@]1(C)CC[C@@]3(O)C(C)(C)CC[C@@H](O)[C@]3(C)[C@H]1C2	> 50	> 50	31		> 1.6			
COc1c2c(c(C=O)c3c1C(=O)OC3)O[C@]1(C)CC[C@@]3(O)[C@@](C)(COC(C)=O)CCC[C@]3(C)[C@H]1C2	> 40	28	17	> 1.4	> 2.3		166	
COc1c2c(c(C=O)c3c1C(=O)OC3)O[C@]1(C)CC[C@H]3C(C)(C)[C@@H](O)CC[C@]3(C)[C@H]1C2	> 50	35	> 50	> 1.4				9.6
COc1c2c(c(C=O)c3c1C(=O)OC3)O[C@]1(C)CC[C@@]3(O)C(C)(C)[C@@H](O)CC[C@]3(C)[C@H]1C2	> 50	28	> 50	> 1.7				
COc1c2c(c(C=O)c3c1C(=O)OC3)O[C@]1(C)CC[C@@]3(O)[C@@](C)(C(=O)O)CCC[C@]3(C)[C@H]1C2	> 50	35	> 50	> 1.4				
COc1c(C)c2c(c(O)c1C/C=C(\C)CCC(=O)OCCN1CCOCC1)C(=O)OC2 [MYCOPHENOLATE MOFETIL]			1					
COc1c2c(c(C(OC)OC)c3c1C(=O)OC3)O[C@]1(C)CC[C@@]3(O)C(C)(C)CCC[C@]3(C)[C@H]1C2	> 50	> 50	44				92	
